Laboratory results as given in patent publication US7211278B2, “Treating method for suppressing hair growth” (Kao Corporation, priority 1999, dated 2007).
Each block holds one molecule with its values, some of them ahead of it. Peptide text beside a SMILES is read from it.

Key:
[1] = molecular target: T1, neutral endopeptidase of cultivated human fibroblast (Homo sapiens, UniProt P08473); assay: Inhibition test on neutral endopeptidase activity of cultivated human fibroblast; type: biochemical; settings: enzyme solution from human fibroblast, substrate glutaryl-Ala-Ala-Phe-4-methoxy-2-naphthylamine
T1 construct: followed by ultrasonic pulverization, whereby an enzyme solution was obtained; host or cells: normal human fibroblasts, Triton X-100 lysate after sonication
T1 sequence (P08473 whole entry): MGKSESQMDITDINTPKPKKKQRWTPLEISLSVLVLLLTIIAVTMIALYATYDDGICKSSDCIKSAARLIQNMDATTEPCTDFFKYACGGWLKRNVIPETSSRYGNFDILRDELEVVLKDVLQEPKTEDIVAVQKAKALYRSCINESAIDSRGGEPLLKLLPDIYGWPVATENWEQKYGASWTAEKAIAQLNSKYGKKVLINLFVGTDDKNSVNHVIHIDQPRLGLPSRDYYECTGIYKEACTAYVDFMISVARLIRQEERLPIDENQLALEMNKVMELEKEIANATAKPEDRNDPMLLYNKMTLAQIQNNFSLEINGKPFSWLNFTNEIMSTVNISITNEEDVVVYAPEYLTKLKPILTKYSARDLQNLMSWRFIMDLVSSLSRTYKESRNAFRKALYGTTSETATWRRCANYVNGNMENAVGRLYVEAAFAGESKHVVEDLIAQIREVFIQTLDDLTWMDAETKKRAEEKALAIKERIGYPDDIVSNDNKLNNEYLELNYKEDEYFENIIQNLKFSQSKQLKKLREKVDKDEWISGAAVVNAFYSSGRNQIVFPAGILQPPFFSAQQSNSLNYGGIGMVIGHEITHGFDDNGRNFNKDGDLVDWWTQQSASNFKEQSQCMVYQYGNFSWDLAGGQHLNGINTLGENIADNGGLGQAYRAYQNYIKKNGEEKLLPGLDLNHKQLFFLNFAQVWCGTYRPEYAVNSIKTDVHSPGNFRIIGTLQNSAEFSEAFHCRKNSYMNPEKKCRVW
Text: Test 1 Inhibition Test on Neutral Endopeptidase Activity of Cultivated Human Fibroblast
Normal human fibroblast commercially available from Dainippon Pharmaceutical Co., Ltd. was subcultured on a DME medium containing 10% bovine fatal serum and provided for the present test. The cells peeled by a rubber-policeman from a Petri dish were floated in a phosphate-buffered physiological saline, collected by a low-velocity centrifuge, and washed three times with the same physiological saline. The cells were floated in a 0.1% Triton X-100/0.2M tris-HCl buffer (pH 8.0), followed by ultrasonic pulverization, whereby an enzyme solution was obtained.
The enzyme activity was measured as follows: To 100 μL of an MES buffer (100 mM, pH 6.5) added with sodium chloride (300 mM), were added 2 μL of the enzyme solution, 1 μL of a solution of the invention compound and, as a substrate for the measurement of enzyme activity, 1 μL of 20 mM glutalyl-Ala-Ala-Phe-4-methoxy-2-naphthylamine, followed by reaction at 37° C. for 1 hour. Phosphoramldon was added to the reaction mixture to give its final concentration of 0.4 μM and then, the reaction was terminated. Aminopeptidase M having a final concentration of 20 mU was added to the reaction mixture and the resulting mixture were reacted at 37° C. for 15 minutes. The amount of the resulting 4-methoxy-2-naphthylamine was determined by measuring the fluorescent strength at excited wavelength of 340 nm and fluorescent wavelength of 425 nm by a fluorospectrophotometer and % inhibition of the compound against enzyme activity was determined.

C3H mice = assay: Hair growth test (2) using mice; type: in vivo
Experimental: (1) Preparation of a Test Sample
Each of Compounds 1 to 3 and 7 was dissolved in a 50% ethanol solution, whereby a 1 mM solution was prepared.
Papain powder (produced by CALBIOCHEM-NOVABIOCHEM CORPORATION) was dissolved in purified water to prepare a 2% aqueous solution, followed by the addition of an equal amount of ethanol to prepare a 1% ethanol solution.
Trypsin powder (produced by Sigma Aldrich Corporation) was dissolved in Hanks' Balanced Salt Solution (produced by Gibco BRL) having 1 mM EDTA-4Na dissolved therein, followed by the addition of an equal amount of ethanol to prepare a 1% ethanol solution.
Chymotrypsin powder (produced by Sigma Aldrich Corporation) was treated in a manner similar to that employed for trypsin, whereby a 1% ethanol solution was prepared.
The back of 6-week-old C3H mice (each group consisting of 5 mice) was, shaved by 2×4 cm^2 by electric hair clippers or an electric shaver so as not to injure its skin. The sample was applied in an amount of 100 μL/once to the shaved portion twice a day for 4 weeks. To a control group, only a solvent was applied. Three weeks after depilation, the picture of the shaved portion was taken at a fixed magnification in order to observe the regrowth hair and the area of the hair regrowth (area of regrowth hair/shaved area) was compared with that of the control group by using an image analyzer.

[2] = compound 1 mM alone (Solvent column), 100 μL twice a day on shaved back
[3] = compound 1 mM combined with Papain 1%, 100 μL twice a day
[4] = proteolytic enzyme 1% alone (Solvent), 100 μL twice a day

inhibition at 1000 µM ([1]; concentration 1 mM): 30.2%
Molecule: COC(=O)[C@H](Cc1ccccc1)NC(=O)[C@@H](N)CC(=O)O [Aspartame, Asp-Phe-OMe (aspartame)] (H-Asp-Phe-OMe)

Molecule: CC(C)CC(NP(=O)(O)CCc1ccccc1)C(=O)NC(Cc1c[nH]c2ccccc12)C(=O)O (centres unmarked) [Compound 2]
Hair growth inhibition 3 weeks after depilation (C3H mice; [2]): 59.1
Hair growth inhibition 3 weeks after depilation (C3H mice; [3]): 80.3

Molecule: O=C(O)CCNC(=O)C(CS)Cc1ccccc1 (centres unmarked) [Compound 7]
Hair growth inhibition 3 weeks after depilation (C3H mice; [2]): 59.7
Hair growth inhibition 3 weeks after depilation (C3H mice; [3]): 77.9

inhibition at 1000 µM ([1]; concentration 1 mM): 23.8 ± 2.7%
Molecule: CCOC(=O)CNC(=O)CC(=O)OCC [Compound 8]

inhibition at 100 µM ([1]; concentration 0.1 mM): 74.5 ± 9.3%
Molecule: CCOC(=O)CNC(=O)C(Cc1ccccc1)C(=O)OCC (centres unmarked) [Compound 9]

inhibition at 100 µM ([1]; concentration 0.1 mM): 91.2 ± 3.7%
Molecule: O=C(O)CNC(=O)C(Cc1ccccc1)C(=O)O (centres unmarked) [Compound 10]

inhibition at 100 µM ([1]; concentration 0.1 mM): 85.7 ± 2.2%
Molecule: CCOC(=O)CNC(=O)C(Cc1ccc(-c2ccccc2)cc1)C(=O)OCC (centres unmarked) [Compound 11]

inhibition at 100 µM ([1]; concentration 0.1 mM): 69.5 ± 4.3%
Molecule: O=C(O)CCNC(=O)C(Cc1ccccc1)C(=O)O (centres unmarked) [Compound 12]

inhibition at 1000 µM ([1]; concentration 1 mM): 49.3 ± 1.2%
Molecule: O=C(O)CC(=O)N[C@@H](Cc1ccccc1)C(=O)O [Compound 13]

% inhibition ([1]; concentration 1 mM): 45.7%
Molecule: Asp-Phe

Molecule: Chymotrypsin
Hair growth inhibition 3 weeks after depilation (C3H mice; [4]): 20.1

% inhibition ([1]; concentration 1 mM): 85.4%
Molecule: Phe-Asp

% inhibition ([1]; concentration 1 mM): 49.4%
Molecule: Phe-Gly

% inhibition ([1]; concentration 1 mM): 72.9%
Molecule: Phe-Leu

% inhibition ([1]; concentration 1 mM): 85.7%
Molecule: Phe-Phe

% inhibition ([1]; concentration 0.1 mM): 92.6%
Molecule: Phe-β-Ala

Molecule: Trypsin
Hair growth inhibition 3 weeks after depilation (C3H mice; [4]): 25.6

B1: Papain: proteolytic enzyme, papain powder (CALBIOCHEM-NOVABIOCHEM), 1% ethanol solution (protein, UniProt P00784 134-345, looked up)
Papain: IPEYVDWRQKGAVTPVKNQGSCGSCWAFSAVVTIEGIIKIRTGNLNEYSEQELLDCDRRSYGCNGGYPWSALQLVAQYGIHYRNTYPYEGVQRYCRSREKGPYAAKTDGVRQVQPYNEGALLYSIANQPVSVVLEAAGKDFQLYRGGIFVGPCGNKVDHAVAAVGYGPNYILIKNSWGTGWGENGYIRIKRGTGNSYGVCGLYTSSFYPVKN
Hair growth inhibition 3 weeks after depilation (C3H mice; [4]): 17.3
